Here are results for 17 compounds from ChEMBL document CHEMBL1955736, “The anomeric mixture of some O-galactolipid derivatives is more toxic against cancer cells than either anomer alone” (Bioorg Med Chem Lett, 2012).

The test system of data set [1] is HeLa. In words: Cytotoxicity against human HeLa cells after 72 hrs by MTT assay. In kind it is functional, cell-based. For orientation: Tetrazolium dyes change colour on reduction, which living cells bring about.
In data set [2] the test system is HCT-116. In words: Cytotoxicity against human HCT116 cells after 72 hrs by MTT assay. In kind it is functional, cell-based. The conditions noted are these: HCT-116, 72 h.
The test system of data set [3] is A549. In words: Cytotoxicity against human A549 cells after 72 hrs by MTT assay. Particulars: A549, 72 h. It counts as functional, cell-based.
Data set [4] has as its system HepG2. Description: Cytotoxicity against human HepG2 cells after 72 hrs by MTT assay. Particulars: HepG2, 72 h. In kind it is functional, cell-based.
Data set [5] is described as follows: Cytotoxicity against mouse 3T3L1 cells assessed as viability at 100 ug/mL after 72 hrs by MTT assay. In kind it is cell-based. The conditions noted are these: 3T3-L1 cells, read-out: Activity.

The structures appear in SMILES notation.

The term IC50 denotes the concentration that gives 50% inhibition. Low readings indicate inhibition by little substance, high ones a need for much substance.

`CCCCCCCCCCCCCCCCO[C@@H]1O[C@H](CO)[C@H](O)[C@H](O)[C@H]1O`: the concentration for half-maximal inhibition (IC50) in data set [1] was > 240 µM; in data set [2], > 240 µM; in data set [3], 151 µM; in data set [4], > 240 µM.

For the compound `CCCCCCCCCCO[C@H]1O[C@H](CO)[C@H](O)[C@H](O)[C@H]1O`, the IC50 in data set [1] was > 240 µM; in data set [2] it was > 240 µM; in data set [3] it was 144 µM; in data set [4] it was > 240 µM.

For `CCCCCCCCCCCO[C@H]1O[C@H](CO)[C@H](O)[C@H](O)[C@H]1O`, the half-inhibitory concentration (IC50) was 196 µM in data set [1], 152 µM in data set [2], 102 µM in data set [3] and 151 µM in data set [4].

As to `CCCCCCCCCCCCO[C@H]1O[C@H](CO)[C@H](O)[C@H](O)[C@H]1O`, the IC50 in data set [1] turned out to be 146 µM; in data set [2], 88.8 µM; in data set [3], 56.7 µM; in data set [4], 138 µM.

As to `CCCCCCCCCCCCCO[C@H]1O[C@H](CO)[C@H](O)[C@H](O)[C@H]1O`, the concentration for half-maximal inhibition (IC50) is 73.3 µM in data set [1], 75.1 µM in data set [2], 51.8 µM in data set [3] and 89.9 µM in data set [4].

With `CCCCCCCCCCCCCCO[C@H]1O[C@H](CO)[C@H](O)[C@H](O)[C@H]1O`, the concentration for half-maximal inhibition (IC50) in data set [1] was found to be 67 µM; in data set [2] it was 72.8 µM; in data set [3], 49.6 µM; in data set [4] it was 68.1 µM.

As to `CCCCCCCCCCCCCCCO[C@H]1O[C@H](CO)[C@H](O)[C@H](O)[C@H]1O`, the concentration for half-maximal inhibition (IC50) in data set [1] was 61.3 µM; in data set [2], 52.5 µM; in data set [3], 46.8 µM; in data set [4] it was > 240 µM.

`CCCCCCCCCCCCCCCCO[C@H]1O[C@H](CO)[C@H](O)[C@H](O)[C@H]1O`: the IC50 in data set [1] was 54.6 µM; in data set [2], 42.7 µM; in data set [3], 38.5 µM; in data set [4] it was > 240 µM.

For the compound `CCCCCCCCCCO[C@@H]1O[C@H](CO)[C@H](O)[C@H](O)[C@H]1O`, the concentration for half-maximal inhibition (IC50) in data set [1] was > 240 µM; in data set [2], > 240 µM; in data set [3], 157 µM; in data set [4] it was > 240 µM.

As for `CCCCCCCCCCCO[C@@H]1O[C@H](CO)[C@H](O)[C@H](O)[C@H]1O`, the IC50 was 202 µM in data set [1], 155 µM in data set [2], 118 µM in data set [3] and 200 µM in data set [4].

`CCCCCCCCCCCCO[C@@H]1O[C@H](CO)[C@H](O)[C@H](O)[C@H]1O`: the half-inhibitory concentration (IC50) in data set [1] came out at 151 µM; in data set [2], 97.8 µM; in data set [3], 77.2 µM; in data set [4], 162 µM.

Take `CCCCCCCCCCCCCO[C@@H]1O[C@H](CO)[C@H](O)[C@H](O)[C@H]1O`: the 50% inhibitory concentration (IC50) in data set [1] is 148 µM; in data set [2], 85.3 µM; in data set [3] it was 62 µM; in data set [4], 142 µM.

`CCCCCCCCCCOC1O[C@H](CO)[C@H](O)[C@H](O)[C@H]1O` (mixture of isomers): the IC50 was 180 µM in data set [1], 140 µM in data set [2], 107 µM in data set [3] and 192 µM in data set [4].

Turning to `CCCCCCCCCCCOC1O[C@H](CO)[C@H](O)[C@H](O)[C@H]1O` (mixture of isomers), the concentration for half-maximal inhibition (IC50) in data set [1] was 60.5 µM; in data set [2], 50.9 µM; in data set [3] it was 45.6 µM; in data set [4], 68.2 µM.

As for `CCCCCCCCCCCCOC1O[C@H](CO)[C@H](O)[C@H](O)[C@H]1O` (mixture of isomers), the IC50 in data set [1] worked out at 58.6 µM; in data set [2], 47.7 µM; in data set [3] it was 40.8 µM; in data set [4], 63.4 µM.

As for `CCCCCCCCCCCCCOC1O[C@H](CO)[C@H](O)[C@H](O)[C@H]1O` (mixture of isomers), the half-maximal inhibitory concentration (IC50) is 57.1 µM in data set [1], 38.7 µM in data set [2], 39.3 µM in data set [3] and 54.3 µM in data set [4].

Take `CCCCCCCCCCCCCCCCOC1O[C@H](CO)[C@H](O)[C@H](O)[C@H]1O` (mixture of isomers): the concentration for half-maximal inhibition (IC50) is 45 µM in data set [1], 32.2 µM in data set [2], 25.3 µM in data set [3] and > 240 µM in data set [4]. Further, the viability at 72 h, 100 ug/mL in data set [5] amounted to 94.3%.
